The values below come from patent US5721207A, “Method for treatment of pain” (Innapharma, Inc., priority 1995, dated 1998).

For assay [1], the system named is rat. The assay is described as follows: Rat hot plate test, five consecutive daily intrathecal doses of elcatonin (Example 11). The settings on record: 4.4 IU/kg intrathecal, five consecutive daily doses (FIG. 7). The class given is in vivo. As for the experimental part:
Intrathecal catheters were implanted in rats as described hereinabove, and a 7-10 day period thereafter allowed for full recovery from the surgical procedures.
Eighteen rats were assigned to three treatment groups of six rats per group. The study is conducted in two treatment phases at one week intervals. Treatment Group I rats receive no treatment. Group II rats receive five consecutive daily intrathecal doses of sterile physiological saline (vehicle control).
For each treatment, hot plate latencies are determined as described in Example 5 herein above at 0 minutes (predose, baseline), 1 hour, 3 hours, and 24 hours following injection on the first, third, and fifth study days.
Background: Hot-plate and tail-flick tests time the reaction to a heat stimulus.

The test system of assay [2] is rat. The assay is described as follows: Rat hot plate test, intrathecal elcatonin with 0.1% human serum albumin (Example 13). The class given is in vivo. Conditions: 4.4 IU/kg intrathecal in 0.1% HSA, 5 day multiple administrations (FIG. 9). Here is the method:
On each study day, a standard 25% (wt/vol) solution of HSA is diluted under aseptic conditions with physiological saline ([…] of NaCl, USP grade) to achieve the desired stock solution concentration of 0.2% (wt/vol).
Thirty-two male rats (320-420 g) are obtained, adapted, catheterized and recovered as described hereinabove. […] Group II rats are injected intrathecally with a dose of 4.4 IU/kg in physiological saline containing 0.1% HSA, in a volume of 10 μL/kg. Group III rats are injected with physiological saline containing 0.1% HSA, 10 μL/kg. Each dose is followed by a washout of 8 μL of physiological saline.
In each of the study groups, hot plate latencies are determined at 0 minutes (baseline, predose), 1 hour, 3 hours, 6 hours, and 24 hours following intrathecal injections on the 1st, 3rd and 5th study days.

As for “[Des-Cys^1,ASU^7 ]-Calcitonin, Eel [Elcatonin]”, the hot plate latency result in assay [1] is recorded as “hot plate latency is increased”; in assay [2] it was “increase in rat hot plate latency”. Also, the “hot plate latency at 24 hr after each successive injection” value in assay [1] is “greater hot plate latency, and a cumulative analgesic effect over time”.
